In data set [1] the test system is Aspergillus fumigatus. Briefly: Antifungal activity against Aspergillus fumigatus FP1305. Format: functional, organism-based.
The test system of data set [2] is Candida albicans. Briefly: Antifungal activity against Candida albicans FP633 in in vivo model. Format: functional.
The subject of data set [3] is Aspergillus fumigatus. Briefly: Antifungal activity against Aspergillus fumigatus 8004 in in vivo model. The class given is functional.
In data set [4] the test system is Candida albicans. The experiment in a line: Antifungal activity against Candida albicans FP633. Format: functional.
Data set [5] is described as follows: Effect on hemolysis in red blood cells. The class given is ADME, cell-based, Erythrocyte.

Values after ≈ are worked out from the molar mass of the structure shown. Starred links: 1 amine or outer side, 2 acyl side, 3 side chain; linkers in the order of their positions; H or OH if unused. Positions of bridges follow the written chain, without caps; N, C: chain ends. Non-standard residues stand in square brackets, D forms with d. Residues, ends and D or L forms follow the SMILES beside them. *: point of attachment. hTyr(3S-OH,4S-OH,3'-OSO3H) = N[C@H](C(=O)O)[C@H](O)[C@@H](O)c1ccc(O)c(OS(=O)(=O)O)c1; Orn(4R-OH,5R-OH) = O=C([C@H](C[C@@H](O)[C@@H](O)N[*:3])N[*:1])[*:2]; Orn(4R-OH,5S-OH) = O=C([C@H](C[C@@H](O)[C@H](O)N[*:3])N[*:1])[*:2]; Pro(3S-OH,4S-Me) = C[C@H]1CN[C@H](C(=O)O)[C@H]1O; X1 = CCCCOc1ccc(-c2ccc(-c3ccc(C(=O)*)cc3)cc2)cc1; Benzoyl(4-octyloxy) = CCCCCCCCOc1ccc(C(=O)*)cc1; Gln(3R-OH) = NC(=O)C[C@@H](O)[C@H](N)C(=O)O; Hyp = O=C(O)[C@@H]1C[C@@H](O)CN1

On to `CCCCCCCCOc1ccc2cc(C(=O)N[C@@H]3C[C@@H](O)[C@@H](O)NC(=O)[C@@H]4[C@@H](O)[C@@H](C)CN4C(=O)[C@H]([C@H](O)CC(N)=O)NC(=O)[C@H]([C@H](O)[C@@H](O)c4ccc(O)c(OS(=O)(=O)[O-])c4)NC(=O)[C@@H]4C[C@@H](O)CN4C(=O)C([C@@H](C)O)NC3=O)ccc2c1.[Na+]` (stereo not given in full), for which the IC50 in the data set with Aspergillus fumigatus [1] worked out at 0.003 µg/mL. Moreover, the figures for the ED50 with Candida albicans [2] and in the data set on Aspergillus fumigatus [3] were 0.46 mg/kg and 0.79 mg/kg, respectively. This molecule yielded an MIC against Candida albicans [4] of 0.1 µg/mL. For the same molecule, the LC30 in data set [5] was above 10000 µg/mL.
Molecule `CCCCCCCCCCOc1ccc2cc(C(=O)N[C@@H]3C[C@@H](O)[C@@H](O)NC(=O)[C@@H]4[C@@H](O)[C@@H](C)CN4C(=O)[C@H]([C@H](O)CC(N)=O)NC(=O)[C@H]([C@H](O)[C@@H](O)c4ccc(O)c(OS(=O)(=O)[O-])c4)NC(=O)[C@@H]4C[C@@H](O)CN4C(=O)C([C@@H](C)O)NC3=O)ccc2c1.[Na+]` (stereo not given in full) gave an IC50 in the data set with Aspergillus fumigatus [1] of 0.015 µg/mL. Moreover, in the data set on Candida albicans [4], the MIC was found to be 0.2 µg/mL. Further, the LC30 in data set [5] was 750 µg/mL.
The matching figures for `CCCCCCCOc1ccc(-c2ccc(C(=O)N[C@@H]3C[C@@H](O)[C@@H](O)NC(=O)[C@@H]4[C@@H](O)[C@@H](C)CN4C(=O)[C@H]([C@H](O)CC(N)=O)NC(=O)[C@H]([C@H](O)[C@@H](O)c4ccc(O)c(OS(=O)(=O)[O-])c4)NC(=O)[C@@H]4C[C@@H](O)CN4C(=O)C([C@@H](C)O)NC3=O)cc2)cc1.[Na+]` (stereo not given in full): 0.002 µg/mL, 0.1 µg/mL and 910 µg/mL.
In the data set with Aspergillus fumigatus [1], `CCCCCCOc1ccc2cc(C(=O)N[C@@H]3C[C@@H](O)[C@@H](O)NC(=O)[C@@H]4[C@@H](O)[C@@H](C)CN4C(=O)[C@H]([C@H](O)CC(N)=O)NC(=O)[C@H]([C@H](O)[C@@H](O)c4ccc(O)c(OS(=O)(=O)[O-])c4)NC(=O)[C@@H]4C[C@@H](O)CN4C(=O)C([C@@H](C)O)NC3=O)ccc2c1.[Na+]` (stereo not given in full) displayed an IC50 of 0.025 µg/mL. For the same molecule, the MIC against Candida albicans [4] was 0.78 µg/mL. The molecule also returned an LC30 in data set [5] above 10000 µg/mL.
In the case of `CCCCCCCCCCCCOc1ccc2cc(C(=O)N[C@@H]3C[C@@H](O)[C@@H](O)NC(=O)[C@@H]4[C@@H](O)[C@@H](C)CN4C(=O)[C@H]([C@H](O)CC(N)=O)NC(=O)[C@H]([C@H](O)[C@@H](O)c4ccc(O)c(OS(=O)(=O)[O-])c4)NC(=O)[C@@H]4C[C@@H](O)CN4C(=O)C([C@@H](C)O)NC3=O)ccc2c1.[Na+]` (stereo not given in full), in the data set with Candida albicans [4], the lowest concentration to inhibit growth (MIC) was 0.78 µg/mL. In addition, the LC30 in data set [5] is 410 µg/mL.
Molecule `CCCCCCCCOc1ccc(/C=C/C(=O)N[C@@H]2C[C@@H](O)[C@@H](O)NC(=O)[C@@H]3[C@@H](O)[C@@H](C)CN3C(=O)[C@H]([C@H](O)CC(N)=O)NC(=O)[C@H]([C@H](O)[C@@H](O)c3ccc(O)c(OS(=O)(=O)[O-])c3)NC(=O)[C@@H]3C[C@@H](O)CN3C(=O)C([C@@H](C)O)NC2=O)cc1.[Na+]` (stereo not given in full) returned a minimum inhibitory concentration (MIC) with Candida albicans [4] of 0.78 µg/mL. Besides, the LC30 in data set [5] is above 10000 µg/mL.
In the data set with Aspergillus fumigatus [1], `CCCCCOc1ccc(-c2ccc(/C=C/C(=O)N[C@@H]3C[C@@H](O)[C@@H](O)NC(=O)[C@@H]4[C@@H](O)[C@@H](C)CN4C(=O)[C@H]([C@H](O)CC(N)=O)NC(=O)[C@H]([C@H](O)[C@@H](O)c4ccc(O)c(OS(=O)(=O)[O-])c4)NC(=O)[C@@H]4C[C@@H](O)CN4C(=O)C([C@@H](C)O)NC3=O)cc2)cc1.[Na+]` (stereo not given in full) gave an IC50 of 0.002 µg/mL. Moreover, it took 0.05 µg/mL to inhibit growth in the data set on Candida albicans [4] (MIC). Moreover, in data set [5], the LC30 worked out at 3950 µg/mL.
Taken in the same sequence, the figures for `CCCCCCCOc1ccc2cc(C(=O)N[C@@H]3C[C@@H](O)[C@@H](O)NC(=O)[C@@H]4[C@@H](O)[C@@H](C)CN4C(=O)[C@H]([C@H](O)CC(N)=O)NC(=O)[C@H]([C@H](O)[C@@H](O)c4ccc(O)c(OS(=O)(=O)[O-])c4)NC(=O)[C@@H]4C[C@@H](O)CN4C(=O)C([C@@H](C)O)NC3=O)ccc2c1.[Na+]` (stereo not given in full) were 0.004 µg/mL, 0.39 µg/mL and above 10000 µg/mL.
In turn, `CCCCCCCCCCOc1ccc(C(=O)N[C@@H]2C[C@@H](O)[C@@H](O)NC(=O)[C@@H]3[C@@H](O)[C@@H](C)CN3C(=O)[C@H]([C@H](O)CC(N)=O)NC(=O)[C@H]([C@H](O)[C@@H](O)c3ccc(O)c(OS(=O)(=O)[O-])c3)NC(=O)[C@@H]3C[C@@H](O)CN3C(=O)C([C@@H](C)O)NC2=O)cc1.[Na+]` (stereo not given in full) registered an IC50 with Aspergillus fumigatus [1] of 0.005 µg/mL. In the data set with Candida albicans [4], this molecule gave an MIC of 0.2 µg/mL. For the same molecule, the LC30 in data set [5] turned out to be 10000 µg/mL.
`CCCCOc1ccc(-c2ccc(-c3ccc(C(=O)N[C@H]4C[C@@H](O)[C@@H](O)NC(=O)[C@@H]5[C@@H](O)[C@@H](C)CN5C(=O)[C@H]([C@H](O)CC(N)=O)NC(=O)[C@H]([C@H](O)[C@@H](O)c5ccc(O)c(OS(=O)(=O)O)c5)NC(=O)[C@@H]5C[C@@H](O)CN5C(=O)[C@H]([C@@H](C)O)NC4=O)cc3)cc2)cc1` (X1-[Orn(4R-OH,5R-OH)]T[Hyp][hTyr(3S-OH,4S-OH,3'-OSO3H)][Gln(3R-OH)][Pro(3S-OH,4S-Me)]; lactam 1-C) [listing 1 of 2 here]: the midpoint of inhibition with Aspergillus fumigatus [1], the IC50, lay at 0.002 µg/mL (≈ 1.58 nM). The molecule further yielded an LC30 in data set [5] of 370 µg/mL (≈ 292000 nM).
In the data set on Candida albicans [4], `CCCCOc1ccc(-c2ccc(-c3ccc(C(=O)N[C@H]4C[C@@H](O)[C@@H](O)NC(=O)[C@@H]5[C@@H](O)[C@@H](C)CN5C(=O)[C@H]([C@H](O)CC(N)=O)NC(=O)[C@H]([C@H](O)[C@@H](O)c5ccc(O)c(OS(=O)(=O)O)c5)NC(=O)[C@@H]5C[C@@H](O)CN5C(=O)[C@H]([C@@H](C)O)NC4=O)cc3)cc2)cc1` (X1-[Orn(4R-OH,5R-OH)]T[Hyp][hTyr(3S-OH,4S-OH,3'-OSO3H)][Gln(3R-OH)][Pro(3S-OH,4S-Me)]; lactam 1-C) [listing 2 of 2 here] displayed an MIC of 0.0125 µg/mL (≈ 9.88 nM).
In the data set on Aspergillus fumigatus [1], `CCCCCCCCOc1ccc(C(=O)N[C@H]2C[C@@H](O)[C@H](O)NC(=O)[C@@H]3[C@@H](O)[C@@H](C)CN3C(=O)[C@H]([C@H](O)CC(N)=O)NC(=O)[C@H]([C@H](O)[C@@H](O)c3ccc(O)c(OS(=O)(=O)[O-])c3)NC(=O)[C@@H]3C[C@@H](O)CN3C(=O)[C@H]([C@@H](C)O)NC2=O)cc1.[Na+]` [FR-131535] ({Benzoyl(4-octyloxy)}-[Orn(4R-OH,5S-OH)]T[Hyp][hTyr(3S-OH,4S-OH,3'-OSO3H)][Gln(3R-OH)][Pro(3S-OH,4S-Me)]; lactam 1-C) yielded an IC50 of 0.015 µg/mL. For the same molecule, the 50% effective dose (ED50) with Candida albicans [2] was 3.71 mg/kg; in the data set on Aspergillus fumigatus [3], 4.31 mg/kg. Also, in the data set on Candida albicans [4], inhibition of growth (MIC) required 0.78 µg/mL. The LC30 in data set [5] is above 10000 µg/mL.

By IC50 is commonly meant the concentration needed to halve the response being measured. Low values mean greater potency in that assay, high ones weaker potency in that assay. As a reminder, the ED50 is the midpoint of the dose-response relation. As a reminder, the MIC is the lowest concentration that inhibits growth of the organism. A high value points to a need for much substance.

Source of the values: ChEMBL document CHEMBL1141476, “Novel echinocandin antifungals. Part 1: novel side-chain analogs of the natural product FR901379” (Bioorg Med Chem Lett, 2008).
